According to US9192569B2, “Formulations for infusion of type B lantibiotics” (Novacta Biosystems Limited, priority 2010, dated 2015):

Tests used:
[1] = In vivo plasma half-life in mice; conditions: mouse, IV, 9.3 mL/Kg of 3.2 mg/mL solution of Example 1, LC-MS
Procedure: In vivo Plasma Half-life of Compounds of the Present Invention in Mice.
The in vivo half-life of Compound 1 in mice was determined by measurement of its plasma concentrations at various time points following IV dosing. 18 male CD-1 mice aged 7-9 weeks were dosed IV with a 9.3 mL/Kg dose of a 3.2 mg/mL solution of Example 1 in 15% hydroxyl-propyl-beta-cyclodextrin/4.4% glucose/1 mM potassium phosphate (pH=7.6). Plasma samples were obtained at 10, 20, 30, 60, 120 and 240 min post-dose, sampling from 3 animals at each time point. Concentrations of Compound 1 in plasma were determined by LC-MS quantification.

[2] = Laser beam light scattering through cuvette (FIG. 1); assay type: physicochemical; conditions: naked eye
From the text: FIG. 1 is a series of photographs of two control formulations (glucose and vancomycin) and a formulation of Example 1, after a laser beam has been shone through a cuvette containing the same. […] In each case the presence or absence of the beam in the samples is clearly visible to the naked eye.
The colloid formulation according to the present invention is distinguished from a solution by the fact that a polarised beam of light, such as from laser, shone through the formulation, for example held in a 1 cm cuvette, causes the formulation to scatter light visible to the naked eye therefrom, for example in the form of a beam. Whilst not wishing to be bound by theory, this luminous path may be known as a Tyndall beam or Rayleigh scatter, both of which are a result of the scattering of the light by the particles in the colloid.

[3] = system: Methicillin Resistant Staphylococcus aureus (MRSA, ATCC 33591); test: Neutropaenic mouse thigh infection model, further experiment; assay type: in vivo, mice; conditions: IV 2 and 14 h after infection; 2.5-50 mg/Kg; thigh at 26 h
Procedure: In a further experiment groups of 6 male ICR mice weighing 24±2 g were used. Test animals were immunosuppressed by 2 intraperitoneal injections of cyclophosphamide, the first at 150 mg/Kg 4 days before infection (day-4) and the second at 100 mg/Kg 1 day before infection (day-1). On day 0, individual animals were inoculated intramuscularly (IM) into the right thigh of test animals with 1.5×10^5 CFU/mouse of Methicillin Resistant Staphylococcus aureus (MRSA, ATCC 33591) suspended in 100 μL of sterile PBS, pH 7.4. Vehicle and test substances were administered intravenously (IV) at a dose volume of 8 mL/Kg, 2 and 14 hours after thigh infection. Example 1 was dissolved in 5% dextrose/1 mM potassium phosphate, pH 5.0 and administered at doses of 2.5, 5, 10, 15, 25 and 50 mg/Kg. At 26 hours after inoculation, muscle of the right thigh of each test mouse was harvested. From an additional group with no treatment, muscle of the right thigh was harvested at 2 hours after inoculation for the basal CFU determination. The removed muscle tissues were then homogenized in 3-4 mL of PBS, pH 7.4 with a ceramic mortar. Homogenates of 0.1 mL were used for serial 10-fold dilutions and plated on Mueller Hinton broth in 1.5% Bacto agar for CFU determination.

[4] = system: Staphylococcus aureus methicillin resistant ATCC 33591; test: Mouse bacteraemia model, SC dosing; assay type: in vivo, mice
Procedure: In Vivo Efficacy of Compounds in a Mouse Bacteraemia Model
Groups of 6 male CD-1 (Crl.) derived mice weighing 24±2 g were used. Mice were inoculated intraperitoneally (IP) with an LD90-100 of Staphylococcus aureus methicillin resistant ATCC 33591 (1.1×10^7CFU/mouse) in 0.5 mL of BHI broth containing 5% mucin. Example 1 and vancomycin were dissolved in 15% HPbetaCD/4.4% glucose/0.5 mM KH2PO4, pH 5.0 and doses of 1, 3, 5, 10 and 20 mg/Kg were administered subcutaneously (SC) to test animals at 0, 2 and 24 hour(s) after bacteria challenge. The dosing volume was 5 mL/Kg. Mortality was recorded once daily for 7 days. The ED50 for each compound was determined by nonlinear regression.

[5] = system: Staphylococcus aureus methicillin resistant ATCC 33591; test: Mouse bacteraemia model, second experiment, IV dosing; assay type: in vivo, mice; conditions: for number of deaths: 7 days, groups of 6; for survival of mice after 7 days: 1, 3, 5 and 10 mg/kg IV
Procedure: In a second experiment Groups of 6 male CD-1 (Crl.) derived mice weighing 24±2 g were used. Mice were inoculated intraperitoneally (IP) with an LD90-100 of Staphylococcus aureus methicillin resistant ATCC 33591 (1.35×10^8 CFU/mouse) in 0.5 mL of BHI broth containing 5% mucin. Example 1 was dissolved in 5% dextrose/1.5 mM potassium phosphate, pH 5.0 and doses of 1, 3, 5 and 10 mg/Kg were administered intravenously (IV) to test animals at 1 and 13 hour(s) after bacteria challenge. The dosing volume was 5 mL/Kg. Mortality was recorded once daily for 7 days.

[6] = system: Methicillin Resistant Staphylococcus aureus (MRSA, ATCC 33591); test: Neutropaenic mouse thigh infection model; assay type: in vivo, mice; conditions: for antimicrobial effect: 5, 10, 20, 30 and 40 mg/Kg x2 IV
Procedure: Efficacy of Compounds in a Neutropaenic Mouse Thigh Infection Model.
In vivo efficacy of compounds of the present invention in the treatment of bacterial tissue infections was evaluated using a neutropaenic mouse thigh model.
Groups of 6 male ICR mice weighing 24±2 g were used. Test animals were immuno-suppressed by 2 intraperitoneal injections of cyclophosphamide, the first at 150 mg/Kg 4 days before infection (day-4) and the second at 100 mg/Kg 1 day before infection (day−1). On day 0, individual animals were inoculated intramuscularly (IM) into the right thigh of test animals with 1.15×10^5 CFU/mouse of Methicillin Resistant Staphylococcus aureus (MRSA, ATCC 33591) suspended in 100 μL of sterile PBS, pH 7.4. Vehicle and test substances were administered intravenously (IV) at a dose volume of 6 mL/Kg, 2 and 14 hours after thigh infection. Example 1 and vancomycin were dissolved in 15% hydroxypropyl-beta-cyclodextrin/4.4% glucose/1.5 mM potassium phosphate buffer, pH 7.0 and administered at doses of 5, 10, 20, 30 and 40 mg/Kg. At 26 hours after inoculation, muscle of the right thigh of each test mouse was harvested. From an additional group with no treatment, muscle of the right thigh was harvested at 2 hours after inoculation for the basal CFU determination. The removed muscle tissues were then homogenized in 3-4 mL of PBS, pH 7.4 with a ceramic mortar. Homogenates of 0.1 mL were used for serial 10-fold dilutions and plated on Mueller Hinton broth in 1.5% Bacto agar for CFU determination.

Molecule | half-life [1] | visibility of laser beam through formulation (light scattering) [2] | bacterial counts in the thigh tissue (FIG. 3) [3] | antimicrobial effect against S. aureus (MRSA) in mice ([4]; 3, 5, 10 and 20 mg/Kg x3, SC) | ED50 ([4]; Staphylococcus aureus, ATCC33591, SC at 0, 2 and 24 h after challenge, mortality over 7 days, nonlinear regression, read-out: estimated ED50) | number of deaths ([5]; 1 mg/kg IV at 1 and 13 h) | number of deaths ([5]; 3 mg/kg IV at 1 and 13 h) | number of deaths ([5]; 5 mg/kg IV at 1 and 13 h) | number of deaths ([5]; 10 mg/kg IV at 1 and 13 h) | survival of mice after 7 days [5] | reductions of CFU/g ([6]; 30 mg/kg and above, x2 IV, thigh at 26 h) | antimicrobial effect [6] | reduction of CFU/g, highest attained ([6]; doses 5-40 mg/Kg x2 IV, thigh at 26 h) | survival rate ([4]; 3 mg/Kg, SC) | increase in survival rate ([4]; 3, 5, 10 and 20 mg/Kg x3, SC) | estimated ED50 ([4]; SC at 0, 2 and 24 h after challenge, mortality over 7 days, nonlinear regression) | reduction in CFU/g ([6]; 10 mg/kg and above, x2 IV, thigh at 26 h)
CC[C@H](C)[C@@H]1NC(=O)[C@@H]2NC(=O)[C@H](CC(C)C)NC(=O)[C@H](NC(=O)[C@@H]3CSC[C@@H](N)C(=O)N[C@@H](CO)C(=O)NCC(=O)N[C@@H](Cc4c[nH]c5ccccc45)C(=O)N[C@@H](C(C)C)C(=O)N3)[C@H](C)SC[C@H](NC(=O)[C@H](CCC(=O)O)NC1=O)C(=O)NCC(=O)N[C@H]1C(=O)N[C@@H](CC(C)C)C(=O)N[C@@H](C(C)C)C(=O)N[C@@H](CS[C@H]2C)C(=O)N[C@@H](C)C(=O)N[C@H](C(=O)NCc2cc(Cl)cc(Cl)c2)CS[C@H]1C [Compound 1, Deoxyactagardine B (3,5-dichlorobenzylamine)monocarboxamide] | ~2 h | – | – | – | – | – | – | – | – | – | – | – | – | – | – | – | –
CN[C@H](CC(C)C)C(=O)N[C@H]1C(=O)N[C@@H](CC(N)=O)C(=O)N[C@H]2C(=O)N[C@H]3C(=O)N[C@H](C(=O)N[C@H](C(=O)O)c4cc(O)cc(O)c4-c4cc3ccc4O)[C@H](O)c3ccc(c(Cl)c3)Oc3cc2cc(c3O[C@@H]2O[C@H](CO)[C@@H](O)[C@H](O)[C@H]2O[C@H]2C[C@](C)(N)[C@H](O)[C@H](C)O2)Oc2ccc(cc2Cl)[C@H]1O [vancomycin, reference compound] | – | the beam is not visible | dose dependent reduction in the bacterial counts | significant antimicrobial effect | 3 mg/kg | 5 | 3 | 1 | 0 | dose-dependent increase in survival | > 100 fold | significant antimicrobial effect | ≤ 1,000 fold | – | – | – | –
Deoxyactagardine B (3,5-dichlorobenzylamine)monocarboxamide [Example 1] | – | the beam is visible | dose dependent reduction in the bacterial counts | significant antimicrobial effect | – | 5 | 4 | 1 | 1 | dose-dependent increase in survival | – | significant antimicrobial effect | – | 100% | at least 50% | 1.07 mg/kg | > 1.000 fold
